Values quoted from earlier work, collected in US9820973B2, “Pharmaceutical formulation comprising losartan potassium and chlorthalidone” (Merck Sharp & Dohme B.V., priority 2013, dated 2017).

Structure (SMILES)	Solubility (in words) (across the physiologic pH range)	Behaviour of the salt (in words) (acidic media)	Dissolution of the salt (in words) (neutral to basic media)
NS(=O)(=O)c1cc(C2(O)NC(=O)c3ccccc32)ccc1Cl (racemic) [chlorthalidone, (RS)-2-chloro-5-(1-hydroxy-3-oxo-2,3-dihydro-1H-isoindol-1-yl)benzene-1-sulfonamide]	low solubility	–	–
CCCCc1nc(Cl)c(CO)n1Cc1ccc(-c2ccccc2-c2nnn[nH]2)cc1 [Losartan potassium, 2-butyl-4-chloro-1-[p-(o-1H-tetrazol-5-ylphenyl)-benzyl]imidazole-5-methanol]	–	the salt dissociates and the losartan free acid precipitates as a gel layer	readily dissolves
